Tested on: transgenic soybean plants
Assay: Detection of the herbicide tolerance of the transgenic soybean plants
Format: in vivo
Conditions: for The grade of pesticide damage/plant: 0 / The grade of pesticide damage/plant: 1 / The grade of pesticide damage/plant: 2 / The grade of pesticide damage/plant: 3: 7 DAT
[1] = genotype Control vector, 120 g ai/ha
[2] = genotype Control vector, 240 g ai/ha
[3] = genotype PPO-AP-01, 120 g ai/ha
[4] = genotype PPO-AP-01, 240 g ai/ha
[5] = genotype PPO-EC-01, 120 g ai/ha
[6] = genotype PPO-EC-01, 240 g ai/ha

C#CCN1C(=O)COc2cc(F)c(N3C(=O)C4=C(CCCC4)C3=O)cc21 [flumioxazin, 2-[7-fluoro-3,4-dihydro-3-oxo-4-(2-propynyl)-2H-1,4-benzoxazin-6-yl]-4,5,6,7-tetrahydro-1H-isoindole-1,3(2H)-dione]
The grade of pesticide damage/plant: 0 (genotype CK, 120 g ai/ha): 0 plant
The grade of pesticide damage/plant: 1 (genotype CK, 120 g ai/ha): 0 plant
The grade of pesticide damage/plant: 2 (genotype CK, 120 g ai/ha): 0 plant
The grade of pesticide damage/plant: 3 (genotype CK, 120 g ai/ha): 16 plant
The grade of pesticide damage/plant: 0 (genotype CK, 240 g ai/ha): 0 plant
The grade of pesticide damage/plant: 1 (genotype CK, 240 g ai/ha): 0 plant
The grade of pesticide damage/plant: 2 (genotype CK, 240 g ai/ha): 0 plant
The grade of pesticide damage/plant: 3 (genotype CK, 240 g ai/ha): 16 plant
The grade of pesticide damage/plant: 0 [1]: 0 plant
The grade of pesticide damage/plant: 1 [1]: 0 plant
The grade of pesticide damage/plant: 2 [1]: 0 plant
The grade of pesticide damage/plant: 3 [1]: 16 plant
The grade of pesticide damage/plant: 0 [2]: 0 plant
The grade of pesticide damage/plant: 1 [2]: 0 plant
The grade of pesticide damage/plant: 2 [2]: 0 plant
The grade of pesticide damage/plant: 3 [2]: 16 plant
The grade of pesticide damage/plant: 0 [3]: 0 plant
The grade of pesticide damage/plant: 1 [3]: 0 plant
The grade of pesticide damage/plant: 2 [3]: 0 plant
The grade of pesticide damage/plant: 3 [3]: 16 plant
The grade of pesticide damage/plant: 0 [4]: 0 plant
The grade of pesticide damage/plant: 1 [4]: 0 plant
The grade of pesticide damage/plant: 2 [4]: 0 plant
The grade of pesticide damage/plant: 3 [4]: 16 plant
tolerance to the herbicide (in words) (genotype PPO-AP-01, at different concentrations): no flumioxazin tolerance
The grade of pesticide damage/plant: 0 [5]: 16 plant
The grade of pesticide damage/plant: 1 [5]: 0 plant
The grade of pesticide damage/plant: 2 [5]: 0 plant
The grade of pesticide damage/plant: 3 [5]: 0 plant
The grade of pesticide damage/plant: 0 [6]: 15 plant
The grade of pesticide damage/plant: 1 [6]: 1 plant
The grade of pesticide damage/plant: 2 [6]: 0 plant
The grade of pesticide damage/plant: 3 [6]: 0 plant
The grade of pesticide damage/plant: 0 (genotype PPOA-01, 120 g ai/ha): 16 plant
The grade of pesticide damage/plant: 1 (genotype PPOA-01, 120 g ai/ha): 0 plant
The grade of pesticide damage/plant: 2 (genotype PPOA-01, 120 g ai/ha): 0 plant
The grade of pesticide damage/plant: 3 (genotype PPOA-01, 120 g ai/ha): 0 plant
The grade of pesticide damage/plant: 0 (genotype PPOA-01, 240 g ai/ha): 14 plant
The grade of pesticide damage/plant: 1 (genotype PPOA-01, 240 g ai/ha): 2 plant
The grade of pesticide damage/plant: 2 (genotype PPOA-01, 240 g ai/ha): 0 plant
The grade of pesticide damage/plant: 3 (genotype PPOA-01, 240 g ai/ha): 0 plant
The grade of pesticide damage/plant: 0 (genotype PPOB-01, 120 g ai/ha): 16 plant
The grade of pesticide damage/plant: 1 (genotype PPOB-01, 120 g ai/ha): 0 plant
The grade of pesticide damage/plant: 2 (genotype PPOB-01, 120 g ai/ha): 0 plant
The grade of pesticide damage/plant: 3 (genotype PPOB-01, 120 g ai/ha): 0 plant
The grade of pesticide damage/plant: 0 (genotype PPOB-01, 240 g ai/ha): 15 plant
The grade of pesticide damage/plant: 1 (genotype PPOB-01, 240 g ai/ha): 1 plant
The grade of pesticide damage/plant: 2 (genotype PPOB-01, 240 g ai/ha): 0 plant
The grade of pesticide damage/plant: 3 (genotype PPOB-01, 240 g ai/ha): 0 plant
The grade of pesticide damage/plant: 0 (genotype PPOC-01, 120 g ai/ha): 16 plant
The grade of pesticide damage/plant: 1 (genotype PPOC-01, 120 g ai/ha): 0 plant
The grade of pesticide damage/plant: 2 (genotype PPOC-01, 120 g ai/ha): 0 plant
The grade of pesticide damage/plant: 3 (genotype PPOC-01, 120 g ai/ha): 0 plant
The grade of pesticide damage/plant: 0 (genotype PPOC-01, 240 g ai/ha): 16 plant
The grade of pesticide damage/plant: 1 (genotype PPOC-01, 240 g ai/ha): 0 plant
The grade of pesticide damage/plant: 2 (genotype PPOC-01, 240 g ai/ha): 0 plant
The grade of pesticide damage/plant: 3 (genotype PPOC-01, 240 g ai/ha): 0 plant
The grade of pesticide damage/plant: 0 (genotype PPOD-01, 120 g ai/ha): 16 plant
The grade of pesticide damage/plant: 1 (genotype PPOD-01, 120 g ai/ha): 0 plant
The grade of pesticide damage/plant: 2 (genotype PPOD-01, 120 g ai/ha): 0 plant
The grade of pesticide damage/plant: 3 (genotype PPOD-01, 120 g ai/ha): 0 plant
The grade of pesticide damage/plant: 0 (genotype PPOD-01, 240 g ai/ha): 16 plant
The grade of pesticide damage/plant: 1 (genotype PPOD-01, 240 g ai/ha): 0 plant
The grade of pesticide damage/plant: 2 (genotype PPOD-01, 240 g ai/ha): 0 plant
The grade of pesticide damage/plant: 3 (genotype PPOD-01, 240 g ai/ha): 0 plant
The grade of pesticide damage/plant: 0 (genotype PPOE-01, 120 g ai/ha): 16 plant
The grade of pesticide damage/plant: 1 (genotype PPOE-01, 120 g ai/ha): 0 plant
The grade of pesticide damage/plant: 2 (genotype PPOE-01, 120 g ai/ha): 0 plant
The grade of pesticide damage/plant: 3 (genotype PPOE-01, 120 g ai/ha): 0 plant
The grade of pesticide damage/plant: 0 (genotype PPOE-01, 240 g ai/ha): 15 plant
The grade of pesticide damage/plant: 1 (genotype PPOE-01, 240 g ai/ha): 1 plant
The grade of pesticide damage/plant: 2 (genotype PPOE-01, 240 g ai/ha): 0 plant
The grade of pesticide damage/plant: 3 (genotype PPOE-01, 240 g ai/ha): 0 plant
The grade of pesticide damage/plant: 0 (genotype PPOF-01, 120 g ai/ha): 16 plant
The grade of pesticide damage/plant: 1 (genotype PPOF-01, 120 g ai/ha): 0 plant
The grade of pesticide damage/plant: 2 (genotype PPOF-01, 120 g ai/ha): 0 plant
The grade of pesticide damage/plant: 3 (genotype PPOF-01, 120 g ai/ha): 0 plant
The grade of pesticide damage/plant: 0 (genotype PPOF-01, 240 g ai/ha): 14 plant
The grade of pesticide damage/plant: 1 (genotype PPOF-01, 240 g ai/ha): 2 plant
The grade of pesticide damage/plant: 2 (genotype PPOF-01, 240 g ai/ha): 0 plant
The grade of pesticide damage/plant: 3 (genotype PPOF-01, 240 g ai/ha): 0 plant
tolerance to the herbicide (in words) (genotypes PPOA-01 to PPOF-01 and PPO-EC-01, at different concentrations): high-resistant tolerance

Source: patent US20250275540A1, “USE OF PROTOPORPHYRINOGEN OXIDASE” (BEIJING DABEINONG BIOTECHNOLOGY CO., LTD., priority 2022, published 2025)
